We go through six compounds from publication PMC10215199 (Antioxidants, 2023).

One data set has as its system MAO-A. Conditions: Figure 1, cited from earlier work.
In the next data set the test system is MAO-B. The settings on record: cited from earlier work.
In a further data set the target is T1, recombinant human MAO-A (Homo sapiens, UniProt P21397).
T1 sequence (P21397 1-527): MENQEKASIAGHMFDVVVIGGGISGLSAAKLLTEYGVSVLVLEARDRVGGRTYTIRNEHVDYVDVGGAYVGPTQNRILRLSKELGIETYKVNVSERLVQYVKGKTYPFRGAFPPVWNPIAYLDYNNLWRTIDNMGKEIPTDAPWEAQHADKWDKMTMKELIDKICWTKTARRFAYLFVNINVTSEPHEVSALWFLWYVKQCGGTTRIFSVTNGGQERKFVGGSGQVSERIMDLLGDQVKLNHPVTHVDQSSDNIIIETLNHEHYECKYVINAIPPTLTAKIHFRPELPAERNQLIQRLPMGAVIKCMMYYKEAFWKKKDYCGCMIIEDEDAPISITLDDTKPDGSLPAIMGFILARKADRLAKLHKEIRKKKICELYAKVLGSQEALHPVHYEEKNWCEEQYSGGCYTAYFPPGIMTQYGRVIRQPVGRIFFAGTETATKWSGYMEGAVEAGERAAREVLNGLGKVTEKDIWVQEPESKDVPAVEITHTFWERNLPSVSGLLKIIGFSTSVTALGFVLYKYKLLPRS
Kind of data set: Monoamine oxidase-A inhibition assay (Amplex red fluorescence). It is filed as biochemical. The settings on record: for inhibition at 1 µM: read-out: % Inhibition MAO-A; for inhibition at 100 µM: read-out: MAO-A % Inhibition. The procedure: Two isoforms of MAOs, namely MAO-A and MAO-B, are expressed in CNS, showing different substrate specificity. Consequently, different pharmacological effects can be elicited depending on the inhibited MAO isoform. Therefore, the prepared O^6-aminoalkyl-hispidol analogs were evaluated against both recombinant human MAO-A and MAO-B isoforms following the well-established spectrophotometric method.
2. Biological evaluations
2.1. In vitro assay of human monoamine oxidases inhibition
The MAO activity was quantified by measuring fluorescence intensity evoked by Amplex red reaction in which Amplex red reacts with hydrogen peroxide from the MAO reaction to produce highly fluorescent resorufin. The test compound in DMSO (final concentration: 1 nM – 10 μM or 10 nM – 100 μM ) and hMAO enzyme (Sigma Aldrich, St. Louis, MO, USA) in 50 mM sodium phosphate buffer (pH 7.4, final protein amount: ~1.25 μg of MAO-A/well and 2.5 μg of MAO-B/well) were loaded on 96-well black plate and incubated for 15 min at 37 °C. Then working solution of 200 μM Amplex Red (Cayman, Ann Arbor, MI, USA), 1 U/mL horseradish peroxidase (Sigma-Aldrich) and 1 mM substrate (p-tyramine for MAO-A, benzylamine for MAO-B, Sigma-Aldrich) in 50 mM sodium phosphate buffer (pH 7.4) was added and incubated for 20 min at 37 °C in the dark. The fluorescence was measured using a microplate reader (SpectraMax®i3, Molecular Device, San Jose, CA, USA) with an excitation at 545 nm and an emission at 590 nm. […]
(§1) of compounds were determined as the mean ± S.E.M. in triplicate from the dose-response inhibition curves using SigmaPlot® 13.0.

The next data set deals with T2, recombinant human MAO-B (Homo sapiens, UniProt P27338).
T2 construct: purchased Sigma Aldrich
T2 sequence (P27338 1-520): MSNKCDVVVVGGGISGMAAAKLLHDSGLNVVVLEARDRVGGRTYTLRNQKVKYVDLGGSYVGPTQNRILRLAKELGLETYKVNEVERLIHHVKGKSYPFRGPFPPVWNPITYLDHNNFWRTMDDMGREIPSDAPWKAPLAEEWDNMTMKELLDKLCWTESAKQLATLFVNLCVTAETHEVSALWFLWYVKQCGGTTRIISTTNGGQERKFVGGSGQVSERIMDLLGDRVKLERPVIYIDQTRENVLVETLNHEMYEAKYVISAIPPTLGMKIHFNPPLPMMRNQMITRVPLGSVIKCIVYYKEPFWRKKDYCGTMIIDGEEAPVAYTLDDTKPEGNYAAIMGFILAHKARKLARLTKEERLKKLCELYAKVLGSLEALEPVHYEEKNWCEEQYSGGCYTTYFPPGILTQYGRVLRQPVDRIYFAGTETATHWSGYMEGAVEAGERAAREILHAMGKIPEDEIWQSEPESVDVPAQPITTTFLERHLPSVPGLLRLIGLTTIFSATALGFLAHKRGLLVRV
Briefly: biochemical. The settings on record: for inhibition at 10 µM: single dose concentration of 10 µM; for inhibition at 10 µM / IC50: ±sem; for IC50: five doses; for MAO-B Selectivity Index: calculated from MAO-A and MAO-B IC50 values.

A further data set has as its system microglial BV2 cells. Kind of data set: BV2 cell viability (WST-1 assay). The settings on record: up to 10 micromolar, in presence of LPS, 24 h. The procedure: 2.3. In vitro cellular evaluations
2.3.1. Cell culture and viability determination
Murine BV2 microglial cells obtained from the Korean Cell Line Bank (Seoul, Republic of Korea) were cultured in DMEM with 10% FBS, 100 U/ml penicillin, and 100 μg/ml streptomycin at 37°C in a humidified 5% CO2 atmosphere. Cell viability and toxicity were determined by the WST-1 assay (Roche, Mannheim, Germany). Briefly, BV2 cells in sterile plates were incubated with the […]
(Tetrazolium assays rely on reduction of a dye to a coloured formazan, in cell work by metabolically active cells.)

The test system of data set [1] is PGE2 production in LPS-induced BV2 cells. Kind of data set: Inhibition of LPS-induced production of PGE2 in BV2 cells. The data set is classed as cell-based, murine. Conditions: LPS 500 ng/ml. As for the experimental part:
indicated concentrations of test compounds for 24 h. After replacing the culture media with fresh
2.3.2. Inhibition of LPS-induced production of PGE2
The concentrations of PGE2 in
Sciences, NY, USA) according to the manufacturer’s instructions. […]

In data set [2] the test system is scopolamine-induced cognitive deficits. Briefly: Passive avoidance test, scopolamine-induced cognitive deficits. Conditions: scopolamine 1 mg/kg i.p., mice. The data set is classed as in vivo.
The subject of data set [3] is immobility in forced swim test. Briefly: Forced swim test, acute treatment. The settings on record: 1 and 10 mg/kg p.o.; for Immobility time in forced-swim test: versus control group.
For data set [4], the target named is T3, acetylcholinesterase (AChE) (Mus musculus, UniProt P21836).
T3 construct: The supernatant obtained was used as a source of enzyme for; from tissue; host or cells: whole brain of male ICR mice, supernatant of the homogenate
T3 sequence (P21836 32-614): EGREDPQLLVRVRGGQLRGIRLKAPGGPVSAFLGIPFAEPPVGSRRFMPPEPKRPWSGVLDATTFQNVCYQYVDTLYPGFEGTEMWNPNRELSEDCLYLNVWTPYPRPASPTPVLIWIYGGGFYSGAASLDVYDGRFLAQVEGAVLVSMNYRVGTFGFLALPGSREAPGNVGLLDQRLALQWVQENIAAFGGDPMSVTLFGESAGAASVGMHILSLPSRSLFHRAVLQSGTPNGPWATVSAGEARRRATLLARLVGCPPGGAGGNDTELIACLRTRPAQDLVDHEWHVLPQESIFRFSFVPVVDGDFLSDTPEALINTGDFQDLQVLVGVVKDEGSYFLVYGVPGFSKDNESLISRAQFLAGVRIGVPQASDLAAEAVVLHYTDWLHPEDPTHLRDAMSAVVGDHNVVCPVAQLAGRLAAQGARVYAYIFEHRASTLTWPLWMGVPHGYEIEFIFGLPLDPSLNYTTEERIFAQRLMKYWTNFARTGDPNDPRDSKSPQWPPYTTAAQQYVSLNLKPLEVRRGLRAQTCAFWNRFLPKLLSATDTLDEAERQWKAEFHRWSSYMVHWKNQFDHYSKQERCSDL
Kind of data set: Acetylcholinesterase inhibition assay (Ellman, mouse whole brain homogenate). Conditions: for IC50: ±SD. It is filed as biochemical. The procedure: as §1
2.2. In vitro acetylcholinesterase inhibition assay
(Eyela, Japan) containing 50 volumes of phosphate buffer (pH 8.0, 0.1 M), and then centrifuged at 14,000 rpm for 20 min at 4 °C. The supernatant obtained was used as a source of enzyme for the assay. Each drug was initially dissolved in dimethyl sulfoxide (DMSO) and diluted to various concentrations immediately before use. An aliquot of diluted drug solution was then mixed wit h 640 μL of phosphate buffer (0.1 M, pH 8.0), 25 μL of buffered Ellman’s reagent (10 mM 5,5′- dithio-bis(2-nitrobenzoic acid) and 15 mM sodium bicarbonate), and the enzyme source (100 μL) and pre-incubated at room temperature for 10 min. Then 5 μL of acetylthiocholine iodide solution (75 mM) was added to this mixture and mixed. Absorbance was measured at 410 nm after 10 min for the reaction adding 5 μL of acetylthiocholine iodide solution (75 mM) and to the reaction mixtures (OPTIZEN 2120UV, Mecasys Co. Ltd, Korea).
(In Ellman's method for cholinesterases, released thiocholine reacts with DTNB.)

Another data set has as its system AChE. Also noted: method as in PMID 31891098. The settings on record: chromone-based compound 1, Figure 1; cited from earlier work.
Where [5] appears, read: 10 mg/kg p.o., donepezil 5 mg/kg p.o. as comparator.
The mark [6] stands for this setting: single dose concentration of 1 µM, ±sem, NI = no measured inhibition.
Setting [7] is: single dose concentration of 100 µM, ±sem.

The structures appear in SMILES notation. Entries after “also recorded” stand apart in the source; their conditions may differ. Where two headings read alike, the source gives them in different places.

A word on the IC50: it is the midpoint of a concentration-inhibition curve. For the compound `COc1ccc(/C=C2\Oc3cc(O)ccc3C2=O)c(OC)c1OC` [Hispidol Analog], the IC50 in the data set with MAO-A (ring-B methoxylated hispidol analog) is more than 100000 nM; with MAO-B (ring-B methoxylated hispidol analog, Figure 1), 170 nM.

A word on the inhibition: it is the share of the control response that was lost under treatment. In the case of `COc1cc(/C=C2\Oc3cc(OCCN4CCCC4)ccc3C2=O)cc(OC)c1OC` [Compound 3bc], on recombinant human MAO-A, the IC50 was more than 100000 nM, the inhibition at 1 µM was less than 0% and the inhibition at 100 µM was 21.4 ± 3.51%. Further, on recombinant human MAO-B, the inhibition at 10 µM stood at 99.3 ± 0.38% and the IC50 came out at 340 ± 2 nM. Further, in the data set with microglial BV2 cells, the “Cellular viability of microglial BV2 cells” value is “absence of cytotoxic activity”. In data set [1] (10 micromolar dose), the “LPS-induced PGE2 production in BV2 cells” value was “returned to almost normal levels”. The “LPS-induced PGE2 production in BV2 cells” value in data set [1] (five micromolar concentration) was “normal PGE2 production level”. For the same compound, the “Latency in the retention experiment, passive avoidance” value (from here on “Latency in the retention experiment”) in data set [2] (1 mg/kg p.o.) is recorded as “significantly enhanced latency”. Moreover, in [2] (setting [5]), the “Latency in the retention experiment” value is on record as “significantly enhanced latency; also recorded: as effective as donepezil”. Also, in data set [3], the “Antidepressant-like effect in forced-swim test” value is reported as “did not show antidepressant-like effects” and the “Immobility time in forced-swim test” value was “significantly increased immobility time”.

As for `O=C1/C(=C/c2ccc(O)cc2)Oc2cc(O)ccc21` [Hispidol, hispidol], the IC50 in data set [4] is 202000 nM; in the data set on MAO-A (reported value for hispidol), 260 nM; in the data set with MAO-B (reported value for hispidol), 2450 nM.

As for `CCN(CC)CCOc1ccc2c(c1)O/C(=C\c1ccccc1OC)C2=O` [Compound 3aa], the inhibition at 1 µM at recombinant human MAO-A (setting [6]) is less than 0%. The inhibition at 100 µM on recombinant human MAO-A (setting [7]) worked out at 27.2 ± 2.94%. Besides, the concentration for half-maximal inhibition (IC50) is more than 100000 nM on recombinant human MAO-A (±sem, read-out: MAO-A IC50); 960 ± 4 nM on recombinant human MAO-B; 2670 ± 50 nM in [4]. Further, on recombinant human MAO-B, the “MAO-B Selectivity Index” value is on record as more than 104. Also, on recombinant human MAO-B, the inhibition at 10 µM stood at 91.49 ± 0.27%. In [4] (ratio of potency), the “AChE potency relative to the reference galantamine” value is recorded as approximately 1.8 times. Also, the entries for the “LPS-induced PGE2 production in BV2 cells” value in [1] (10 micromolar dose) and in data set [1] (five micromolar concentration) were “returned to almost normal levels” and “attrition of the inhibitory effect”, respectively. Further, the “Latency in the retention experiment” value in [2] (1 mg/kg p.o.) and in data set [2] (setting [5]) was “did not show significant amelioration of cognitive deficits” throughout. For the same compound, the “Antidepressant-like effect in forced-swim test” value in data set [3] was “did not show antidepressant-like effects”. In addition, in data set [3], the “Immobility time in forced-swim test” value was “significantly increased immobility time”.

`COc1ccc(/C=C2\Oc3cc(OCCCCN4CCCC4)ccc3C2=O)cc1` [Compound 3al]: the inhibition at 1 µM at recombinant human MAO-A (setting [6]) is less than 0%. Also, the “MAO-A % Inhibition” value on recombinant human MAO-A (single dose concentration of 100 µM, ±sem, 100 µM) is recorded as 14.89 ± 3.46%. Also, the inhibition at 100 µM at recombinant human MAO-A (setting [7]) is approximately 15%. For the same compound, on recombinant human MAO-A (±sem, read-out: MAO-A IC50), the IC50 is more than 100000 nM. At recombinant human MAO-B, the “MAO-B Selectivity Index” value was more than 12, the inhibition at 10 µM amounted to 49.8 ± 0.02% and the IC50 was 8650 ± 196 nM. Further, in data set [4], half-maximal inhibition (IC50) was put at 1420 ± 90 nM.

For `O=c1ccoc2ccc(OCCCN3CCCCC3)cc12` [Compound 1], the half-inhibitory concentration (IC50) with MAO-B (chromone-based compound 1, Figure 1) was 7200 nM; in the data set on AChE, 5580 nM.
